Experimental data reported in patent US10611750B2, “Tetrahydroquinoline compositions as bet bromodomain inhibitors” (FORMA Therapeutics, Inc., priority 2013, dated 2020).

Columns and labels:
[1] = target: T1, BRD4 Bromodomain 2 (BRD4 BD2) (Homo sapiens, UniProt O60885); experiment: AlphaScreen binding assay, BRD4 BD2; conditions: His-tagged BRD4 BD2 100 nM, biotinylated H4 (1-21) K5/8/12/16 tetra-acetylated peptide 100 nM, compounds listed under IC50 range headings
T1 construct: 333-460 were cloned, expressed, and purified to homogeneity
Procedure: The binding of Example compounds to BRD4 Bromodomain 1 and BRD4 Bromodomain 2 was assessed using 384-well AlphaScreen assay technology. His-epitope tagged BRD4 BD144-168 and BRD4 BD2333-460 were cloned, expressed, and purified to homogeneity. BRD4 BD1 and BRD4 BD2 binding and inhibition was assessed by monitoring the engagement of biotinylated Histone H4 (1-21) K5/8/12/16 tetra-acetylated peptide with the targets using the AlphaScreen technology (PerkinElmer). Specifically, in a 384-well black or white flat bottom plate, BRD4 BD1 (50 nM final) or BRD4 BD2 (100 nM final) was combined with peptide (50 nM final for BD1 or 100 nM final for BD2) in 50 mM HEPES (pH 7.3), 100 mM NaCl, 0.1% (w/v) BSA, and 0.01% (w/v) Triton X-100 either in the presence of DMSO (final 1.25% DMSO) or compound dilution series in DMSO. Alpha streptavidin donor beads and Nickel-chelate acceptor beads were added to a final concentration of 10 μg/ml each. After a minimum of 1 hour equilibration, plates were read on a BMG PHERAstar FS multi-label reader (BMG LabTech). The half maximal inhibitory concentration (IC50) values were calculated using IDBS Activity Base software with a four parameter logistic curve fit by the equation y=A+((B−A)/(1+((C/x)^D))), wherein A denotes the bottom plateau of the curve, B denotes the top plateau of the curve, C denotes the x value at the middle of the curve, D denotes the slope factor, x denotes the original known x values, and y denotes the original known y values. Data was fitted using the Levenburg Marquardt algorithm.

[2] = target: T2, BRD4 Bromodomain 1 (BRD4 BD1) (Homo sapiens, UniProt O60885); experiment: AlphaScreen binding assay, BRD4 BD1; conditions: His-tagged BRD4 BD1 50 nM, biotinylated H4 (1-21) K5/8/12/16 tetra-acetylated peptide 50 nM, compounds listed under IC50 range headings
T2 construct: 44-168 and BRD4 BD2
In short: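 An AlphaScreen competition format was used with His-BRD4 BD1 or BD2 and biotin-H4 K5/8/12/16-acetyl peptide, each at matched final levels of 50 nM (BD1) or 100 nM (BD2). Incubation in HEPES/NaCl buffer with 0.1% BSA and 0.01% Triton X-100 ran ≥1 h before IC50 determination.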

Compound: CC(=O)N1c2ccc(-c3cnn(C4CC4)c3)c(OCC3CNC3)c2CC[C@@H]1C [I-52, (S)-1-(5-(azetidin-3-ylmethoxy)-6-(1-cyclopropyl-1H-pyrazol-4-yl)-2-methyl-3,4-dihydroquinolin-1 (2H)-yl)ethanone]
- IC50 [1]: ≥ 500 nM
- IC50 [2]: ≥ 10000 nM

Compound: COC(=O)N1c2ccc(-c3cnn(C4CC4)c3)c(OC3CN(C(=O)OC(C)(C)C)C3)c2CC[C@@H]1C [I-58, (S)-methyl 5-(1-(tert-butoxycarbonyl)azetidin-3-yloxy)-6-(1-cyclopropyl-1H-pyrazol-4-yl)-2-methyl-3,4-dihydroquinoline-1(2H)-carboxylate]
- IC50 [1]: ≥ 500 nM
- IC50 [2]: ≥ 10000 nM

Compound: COC(=O)N1c2ccc(-c3cnn(C4CC4)c3)c(OC3CNC3)c2CC[C@@H]1C [I-59, (S)-methyl 5-(azetidin-3-yloxy)-6-(1-cyclopropyl-1H-pyrazol-4-yl)-2-methyl-3,4-dihydroquinoline-1(2H)-carboxylate]
- IC50 [1]: ≥ 500 nM
- IC50 [2]: 1000 to 10000 nM

Compound: COC(=O)N1c2ccc(-c3cnn(C4CC4)c3)c(OCC3(F)COC3)c2CC[C@@H]1C [I-65, (S)-methyl 6-(1-cyclopropyl-1H-pyrazol-4-yl)-5-((3-fluorooxetan-3-yl)methoxy)-2-methyl-3,4-dihydroquinoline-1(2H)-carboxylate]
- IC50 [1]: 50 to 500 nM
- IC50 [2]: 1000 to 10000 nM

Compound: CC(=O)N1c2ccc(-c3cnn(C4COC4)c3)c(Oc3nc4ccccc4o3)c2CC[C@@H]1C [I-79, (S)-1-(5-(benzo[d]oxazol-2-yloxy)-2-methyl-6-(1-(oxetan-3-yl)-1H-pyrazol-4-yl)-3,4-dihydroquinolin-1(2H)-yl)ethanone]
- IC50 [1]: 50 to 500 nM
- IC50 [2]: 100 to 1000 nM

Compound: CC(=O)N1c2ccc(-c3cnn(C4CC4)c3)c(Oc3nccc(C(F)(F)F)n3)c2CC[C@@H]1C [I-85, (S)-1-(6-(1-cyclopropyl-1H-pyrazol-4-yl)-2-methyl-5-(4-(trifluoromethyl)pyrimidin-2-yloxy)-3,4-dihydroquinolin-1 (2H)-yl)ethanone]
- IC50 [1]: 50 to 500 nM
- IC50 [2]: 1000 to 10000 nM

Compound: CC(=O)N1c2ccc(-c3cnn(C4CC4)c3)c(Oc3ncccc3Cl)c2CC[C@@H]1C [I-87, (S)-1-(5-(3-chloropyridin-2-yloxy)-6-(1-cyclopropyl-1H-pyrazol-4-yl)-2-methyl-3,4-dihydroquinolin-1 (2H)-yl)ethanone]
- IC50 [1]: 50 to 500 nM
- IC50 [2]: 1000 to 10000 nM

Compound: CC(=O)N1c2ccc(-c3cnn(C4CC4)c3)c(Oc3nc(C)cc(C)n3)c2CC[C@@H]1C [I-90, (S)-1-(6-(1-cyclopropyl-1H-pyrazol-4-yl)-5-(4,6-dimethylpyrimidin-2-yloxy)-2-methyl-3,4-dihydroquinolin-1 (2H)-yl)ethanone]
- IC50 [1]: 50 to 500 nM
- IC50 [2]: 1000 to 10000 nM

Compound: CC(=O)N1c2ccc(-c3cnn(C4CC4)c3)c(O/C=C/Cl)c2CC[C@@H]1C [I-277, (S,E)-1-(5-(2-chlorovinyloxy)-6-(1-cyclopropyl-1H-pyrazol-4-yl)-2-methyl-3,4-dihydroquinolin-1(2H)-yl)ethanone]
- IC50 [1]: 50 to 500 nM
- IC50 [2]: 1000 to 10000 nM

Compound: CNC(=O)COc1c(-c2cnn(C3COC3)c2)ccc2c1CC[C@H](C)N2C(C)=O [I-378]
- IC50 [1]: 50 to 500 nM
- IC50 [2]: 1000 to 10000 nM

Compound: CC(=O)N1c2ccc(-c3cnn(C4COC4)c3)c(OCc3ccno3)c2CC[C@@H]1C [I-379]
- IC50 [1]: 50 to 500 nM
- IC50 [2]: 1000 to 10000 nM

Compound: CC(=O)N1c2ccc(-c3cnn(C4COC4)c3)c(OCCNS(C)(=O)=O)c2CC[C@@H]1C [I-380]
- IC50 [1]: 50 to 500 nM
- IC50 [2]: 1000 to 10000 nM

Compound: CC(=O)N1c2ccc(-c3cnn(C4CC4)c3)c(OCc3ccno3)c2CC[C@@H]1C [I-381]
- IC50 [1]: 50 to 500 nM
- IC50 [2]: 1000 to 10000 nM

Compound: CNC(=O)COc1c(-c2cnn(C3CC3)c2)ccc2c1CC[C@H](C)N2C(C)=O [I-383]
- IC50 [1]: 50 to 500 nM
- IC50 [2]: 1000 to 10000 nM

Compound: CC(=O)N1c2ccc(-c3cnn(C4CC4)c3)c(OC3COC3)c2CC[C@@H]1C [I-384]
- IC50 [1]: 50 to 500 nM
- IC50 [2]: 1000 to 10000 nM

Compound: CC(=O)N1c2ccc(-c3cnn(C4CC4)c3)c(OCCN(C)C)c2CC[C@@H]1C [I-386]
- IC50 [1]: ≥ 500 nM
- IC50 [2]: 1000 to 10000 nM

Compound: CC(=O)N1c2ccc(-c3cnn(C4CC4)c3)c(OCC(N)=O)c2CC[C@@H]1C [I-391]
- IC50 [1]: ≥ 500 nM
- IC50 [2]: 1000 to 10000 nM
